From ChEMBL document CHEMBL1125035, “Synthesis and biological activity of novel vitamin D analogues: 24,24-difluoro-25-hydroxy-26,27-dimethylvitamin D3 and 24,24-difluoro-1 alpha,25-dihydroxy-26,27-dimethylvitamin D3” (1990)

What was measured:
Rattus norvegicus [1] = experiment: Ability to mobilize Bone-Calcium transport, following the administration of compound in rats at a concentration of 500 pmol at 13 hr.; assay type: functional, organism-based
Rattus norvegicus [2] = experiment: Ability to mobilize Bone-Calcium transport, following the administration of compound in rats at a concentration of 500 pmol at 24 hr.; assay type: functional, organism-based
Rattus norvegicus [3] = experiment: Ability to stimulate intestinal-calcium transport by the administration of compound in rats at a concentration of 5 pmol at 2 hr.; assay type: functional, Intestine
Rattus norvegicus [4] = experiment: Ability to mobilize Bone-Calcium transport, following the administration of compound in rats at a concentration of 5000 pmol at 72 hr.; assay type: functional, organism-based
Rattus norvegicus [5] = experiment: Ability to stimulate intestinal-calcium transport by the administration of compound in rats at a concentration of 500 pmol at 24 hr.; assay type: functional, Intestine
Rattus norvegicus [6] = experiment: Ability to stimulate intestinal-calcium transport by the administration of compound in rats at a concentration of 5000 pmol at 24 hr.; assay type: functional, Intestine
Rattus norvegicus [7] = experiment: Ability to mobilize Bone-Calcium transport, following the administration of compound in rats at a concentration of 50 pmol at 24 hr.; assay type: functional, organism-based
Rattus norvegicus [8] = experiment: Ability to stimulate intestinal-calcium transport by the administration of compound in rats at a concentration of 5000 pmol at 2 hr.; assay type: functional, Intestine
Rattus norvegicus [9] = experiment: Ability to mobilize Bone-Calcium transport, following the administration of compound in rats at a concentration of 5 pmol at 4 hr.; assay type: functional, organism-based
Rattus norvegicus [10] = experiment: Ability to mobilize Bone-Calcium transport, following the administration of compound in rats at a concentration of 500 pmol at 4 hr.; assay type: functional, organism-based
Rattus norvegicus [11] = experiment: Ability to mobilize Bone-Calcium transport, following the administration of compound in rats at a concentration of 5000 pmol at 24 hr.; assay type: functional, organism-based
Rattus norvegicus [12] = experiment: Ability to stimulate intestinal-calcium transport by the administration of compound in rats at a concentration of 50 pmol at 72 hr.; assay type: functional, Intestine
Rattus norvegicus [13] = experiment: Ability to stimulate intestinal-calcium transport by the administration of compound in rats at a concentration of 50 pmol at 4 hr.; assay type: functional, Intestine
[14] = target: T1, Vitamin D-binding protein (Rattus norvegicus) (UniProt P04276); experiment: Displacement of [3H]25-(OH)-D3 from rat plasma Vitamin D binding protein; assay type: cell-free
T1 sequence (whole entry): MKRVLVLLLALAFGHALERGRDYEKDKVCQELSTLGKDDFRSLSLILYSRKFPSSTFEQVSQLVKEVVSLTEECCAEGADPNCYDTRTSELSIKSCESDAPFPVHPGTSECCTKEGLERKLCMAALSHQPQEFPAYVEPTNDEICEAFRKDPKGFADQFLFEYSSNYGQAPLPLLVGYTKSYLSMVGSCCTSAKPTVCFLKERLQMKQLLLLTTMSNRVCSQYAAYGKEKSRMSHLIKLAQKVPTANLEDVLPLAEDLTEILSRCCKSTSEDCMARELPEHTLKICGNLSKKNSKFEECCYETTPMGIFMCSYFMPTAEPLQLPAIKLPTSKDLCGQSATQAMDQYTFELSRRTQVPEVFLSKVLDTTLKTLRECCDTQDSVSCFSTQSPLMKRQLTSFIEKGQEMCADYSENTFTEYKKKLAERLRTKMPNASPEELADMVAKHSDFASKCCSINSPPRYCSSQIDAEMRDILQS

Rattus norvegicus [15] = experiment: Ability to mobilize Bone-Calcium transport, following the administration of compound in rats at a concentration of 500 pmol at 47 hr.; assay type: functional, organism-based
Rattus norvegicus [16] = experiment: Ability to stimulate intestinal-calcium transport by the administration of compound in rats at a concentration of 5 pmol at 4 hr.; assay type: functional, Intestine
Rattus norvegicus [17] = experiment: Ability to stimulate intestinal-calcium transport by the administration of compound in rats at a concentration of 50 pmol at 24 hr.; assay type: functional, Intestine
Rattus norvegicus [18] = experiment: Ability to stimulate intestinal-calcium transport by the administration of compound in rats at a concentration of 500 pmol at 2 hr.; assay type: functional, Intestine
Rattus norvegicus [19] = experiment: Ability to mobilize Bone-Calcium transport, following the administration of compound in rats at a concentration of 50 pmol at 4 hr.; assay type: functional, organism-based
Rattus norvegicus [20] = experiment: Ability to mobilize Bone-Calcium transport, following the administration of compound in rats at a concentration of 50 pmol at 2 hr.; assay type: functional, organism-based
Rattus norvegicus [21] = experiment: Ability to stimulate intestinal-calcium transport by the administration of compound in rats at a concentration of 50 pmol at 2 hr.; assay type: functional, Intestine
Rattus norvegicus [22] = experiment: Ability to stimulate intestinal-calcium transport by the administration of compound in rats at a concentration of 5 pmol at 24 hr.; assay type: functional, Intestine
Gallus gallus = species on record: Gallus gallus; experiment: Bind to chick intestinal Vitamin D3 receptor for 1,25-(OH)2-D3
Rattus norvegicus [23] = experiment: Ability to stimulate intestinal-calcium transport by the administration of compound in rats at a concentration of 5000 pmol at 4 hr.; assay type: functional, Intestine
Rattus norvegicus [24] = experiment: Ability to mobilize Bone-Calcium transport, following the administration of compound in rats at a concentration of 5 pmol at 24 hr.; assay type: functional, organism-based
Rattus norvegicus [25] = experiment: Ability to mobilize Bone-Calcium transport, following the administration of compound in rats at a concentration of 5000 pmol at 13 hr.; assay type: functional, organism-based
Rattus norvegicus [26] = experiment: Ability to mobilize Bone-Calcium transport, following the administration of compound in rats at a concentration of 5000 pmol at 4 hr.; assay type: functional, organism-based
Rattus norvegicus [27] = experiment: Ability to mobilize Bone-Calcium transport, following the administration of compound in rats at a concentration of 5 pmol at 2 hr.; assay type: functional, organism-based
Rattus norvegicus [28] = experiment: Ability to stimulate intestinal-calcium transport by the administration of compound in rats at a concentration of 500 pmol at 4 hr.; assay type: functional, Intestine
Rattus norvegicus [29] = experiment: Ability to stimulate intestinal-calcium transport by the administration of compound in rats at a concentration of 5 pmol at 72 hr.; assay type: functional, Intestine
Rattus norvegicus [30] = experiment: Ability to mobilize Bone-Calcium transport, following the administration of compound in rats at a concentration of 500 pmol at 2 hr.; assay type: functional, organism-based
Rattus norvegicus [31] = experiment: Ability to mobilize Bone-Calcium transport, following the administration of compound in rats at a concentration of 5000 pmol at 2 hr.; assay type: functional, organism-based
Rattus norvegicus [32] = experiment: Ability to mobilize Bone-Calcium transport, following the administration of compound in rats at a concentration of 500 pmol at 48 hr.; assay type: functional, organism-based
Rattus norvegicus [33] = experiment: Ability to stimulate intestinal-calcium transport by the administration of compound in rats at a concentration of 500 pmol at 12 hr.; assay type: functional, Intestine
Rattus norvegicus [34] = experiment: Ability to stimulate intestinal-calcium transport by the administration of compound in rats at a concentration of 5 pmol at 48 hr.; assay type: functional, Intestine
Rattus norvegicus [35] = experiment: Ability to mobilize Bone-Calcium transport, following the administration of compound in rats at a concentration of 50 pmol at 48 hr.; assay type: functional, organism-based
Rattus norvegicus [36] = experiment: Ability to stimulate intestinal-calcium transport by the administration of compound in rats at a concentration of 5000 pmol at 12 hr.; assay type: functional, Intestine
Rattus norvegicus [37] = experiment: Ability to mobilize Bone-Calcium transport, following the administration of compound in rats at a concentration of 50 pmol at 69 hr.; assay type: functional, organism-based

| SMILES | Serum Ca2+ (Rattus norvegicus [2]) [mg/dL] | Serosal/Mucosal Ca (Rattus norvegicus [3]) | Serosal/Mucosal Ca (Rattus norvegicus [5]) | Serosal/Mucosal Ca (Rattus norvegicus [6]) | Serum Ca2+ (Rattus norvegicus [7]) [mg/dL] | Serosal/Mucosal Ca (Rattus norvegicus [8]) | Serum Ca2+ (Rattus norvegicus [9]) [mg/dL] | Serum Ca2+ (Rattus norvegicus [10]) [mg/dL] | Serum Ca2+ (Rattus norvegicus [11]) [mg/dL] | Serosal/Mucosal Ca (Rattus norvegicus [13]) | B50 [14] [nM] | Serosal/Mucosal Ca (Rattus norvegicus [16]) | Serosal/Mucosal Ca (Rattus norvegicus [17]) | Serosal/Mucosal Ca (Rattus norvegicus [18]) | Serum Ca2+ (Rattus norvegicus [19]) [mg/dL] | Serum Ca2+ (Rattus norvegicus [20]) [mg/dL] | Serosal/Mucosal Ca (Rattus norvegicus [21]) | Serosal/Mucosal Ca (Rattus norvegicus [22]) | B50 (Gallus gallus) [nM] | Serosal/Mucosal Ca (Rattus norvegicus [23]) | other results |
| --- | --- | --- | --- | --- | --- | --- | --- | --- | --- | --- | --- | --- | --- | --- | --- | --- | --- | --- | --- | --- | --- |
| C=C1CC[C@H](O)C/C1=C/C=C1\CCC[C@]2(C)[C@@H]([C@H](C)CCC(F)(F)C(O)(CC)CC)CC[C@@H]12 | 5.1 | 1.89 | 7.11 | 8.65 | 4.72 | 3.77 | 4.38 | 4.4 | 5.9 | 1.97 | 25.8 | 1.61 | 6.16 | 2.58 | 4.18 | 4.28 | 1.8 | 2.34 | 52.8 | 3.18 | Serum Ca2+ (Rattus norvegicus [1]): 5.14 mg/dL; Serum Ca2+ (Rattus norvegicus [4]): 5.84 mg/dL; Serosal/Mucosal Ca (Rattus norvegicus [12]): 2.84; Serum Ca2+ (Rattus norvegicus [15]): 4.5 mg/dL; Serum Ca2+ (Rattus norvegicus [24]): 4.9 mg/dL; Serum Ca2+ (Rattus norvegicus [25]): 5.92 mg/dL; Serum Ca2+ (Rattus norvegicus [26]): 4.56 mg/dL; Serum Ca2+ (Rattus norvegicus [27]): 4.4 mg/dL; Serosal/Mucosal Ca (Rattus norvegicus [28]): 2.27; Serosal/Mucosal Ca (Rattus norvegicus [29]): 2.2; Serum Ca2+ (Rattus norvegicus [30]): 4.22 mg/dL; Serum Ca2+ (Rattus norvegicus [31]): 4.78 mg/dL |
| C=C1/C(=C\C=C2/CCC[C@]3(C)[C@@H]([C@H](C)CCC(F)(F)C(O)(CC)CC)CC[C@@H]23)C[C@@H](O)C[C@@H]1O | 5.58 | 2.08 | 7.3 | 5.32 | 4.74 | 3.7 | 4.28 | 5.1 | 6.36 | 4.22 | 2200 | 3.36 | 3.93 | 4.55 | 5 | 4.42 | 2.27 | 2.14 | 0.495 | 4.84 | Serum Ca2+ (Rattus norvegicus [32]): 4.94 mg/dL; Serosal/Mucosal Ca (Rattus norvegicus [33]): 8.92; Serosal/Mucosal Ca (Rattus norvegicus [34]): 2.09; Serum Ca2+ (Rattus norvegicus [35]): 4.08 mg/dL; Serum Ca2+ (Rattus norvegicus [24]): 4.38 mg/dL; Serum Ca2+ (Rattus norvegicus [26]): 5.48 mg/dL; Serum Ca2+ (Rattus norvegicus [27]): 4.5 mg/dL; Serosal/Mucosal Ca (Rattus norvegicus [36]): 8.39; Serosal/Mucosal Ca (Rattus norvegicus [28]): 6.44; Serum Ca2+ (Rattus norvegicus [37]): 4.02 mg/dL; Serum Ca2+ (Rattus norvegicus [30]): 4.8 mg/dL; Serum Ca2+ (Rattus norvegicus [31]): 5.1 mg/dL |
| C=C1CC[C@H](O)C/C1=C/C=C1\CCC[C@]2(C)[C@@H]([C@H](C)CCCC(C)(C)O)CC[C@@H]12 [CALCIFEDIOL ANHYDROUS] | 5.5 | 2.03 | 7.19 | 7.19 | 5.06 | 2.93 | 4.14 | 4.22 | 5.82 | 2.17 | 3.77 | 2.42 | 4.8 | 2.22 | 4.1 | 4.48 | 1.75 | 2.84 | 282 | 3.31 | Serum Ca2+ (Rattus norvegicus [1]): 6.22 mg/dL; Serum Ca2+ (Rattus norvegicus [4]): 6.5 mg/dL; Serosal/Mucosal Ca (Rattus norvegicus [12]): 8.87; Serum Ca2+ (Rattus norvegicus [15]): 5.12 mg/dL; Serum Ca2+ (Rattus norvegicus [24]): 4.34 mg/dL; Serum Ca2+ (Rattus norvegicus [25]): 6.82 mg/dL; Serum Ca2+ (Rattus norvegicus [26]): 4.12 mg/dL; Serum Ca2+ (Rattus norvegicus [27]): 4.32 mg/dL; Serosal/Mucosal Ca (Rattus norvegicus [28]): 2.83; Serosal/Mucosal Ca (Rattus norvegicus [29]): 3.59; Serum Ca2+ (Rattus norvegicus [30]): 4.66 mg/dL; Serum Ca2+ (Rattus norvegicus [31]): 4.64 mg/dL |
| C=C1/C(=C\C=C2/CCC[C@]3(C)[C@@H]([C@H](C)CCCC(C)(C)O)CC[C@@H]23)C[C@@H](O)C[C@@H]1O [CALCITRIOL] | 4.98 | 2.21 | 3.5 | 4.71 | 5 | 3.12 | 4.32 | 5.32 | 5.5 | 5.09 | 45.3 | 2.53 | 4.34 | 3.1 | 4.58 | 4.35 | 2.5 | 2.95 | 0.0725 | 7.66 | Serum Ca2+ (Rattus norvegicus [32]): 4.35 mg/dL; Serosal/Mucosal Ca (Rattus norvegicus [33]): 4.06; Serosal/Mucosal Ca (Rattus norvegicus [34]): 3.19; Serum Ca2+ (Rattus norvegicus [35]): 4.54 mg/dL; Serum Ca2+ (Rattus norvegicus [24]): 4.58 mg/dL; Serum Ca2+ (Rattus norvegicus [26]): 5.6 mg/dL; Serum Ca2+ (Rattus norvegicus [27]): 4.4 mg/dL; Serosal/Mucosal Ca (Rattus norvegicus [36]): 7; Serosal/Mucosal Ca (Rattus norvegicus [28]): 6.6; Serum Ca2+ (Rattus norvegicus [37]): 4.55 mg/dL; Serum Ca2+ (Rattus norvegicus [30]): 4.76 mg/dL; Serum Ca2+ (Rattus norvegicus [31]): 4.84 mg/dL |
